Data from publication PMC9328652, “A novel class of fast‐acting antimalarial agents: Substituted 15‐membered azalides” (British Journal of Pharmacology, 2020).
In brackets after ≈: the same amount, converted by molar mass. Read-outs that look alike come from different tables or passages of the source. Marks after values point to notes of the source that are not given here.

Columns and labels:
haem polymerization = experiment: Cell-free haem polymerization assay; type: biochemical; details: cell‐free, N = 2
Experimental: Experiments were performed according to Tripathi, Khan, Walker, and […] ([2004]). Briefly, a solution of sodium acetate containing mono-oleoyl glycol and the corresponding inhibitor at different concentrations is placed in 1.5-ml reaction tubes. […] Multiple washing steps with Tris/SDS and bicarbonate, to remove monomeric haem and haem aggregates, allow quantification of de novo formed β-haematin.

[1] = test system: P. falciparum 3D7^0087/N9; experiment: P. falciparum murine model (humanized mice), 4-day test; type: in vivo, Plasmodium falciparum; details: for ED90: oral QD for 4 days, parasitaemia at day 7, humanized mice
Experimental: The in vivo efficacy evaluation of the compounds was performed using a P. falciparum murine model of malaria in non‐myelodepleted NOD. Cg‐Prkdc^ scid –β2m^ tm1Unc ‐scid IL2R_null (NODscidβ2m^−/−) mice engrafted with human erythrocytes as described previously (Angulo‐Barturen et al., [2008]; Jimenez‐Diaz et al., [2005]; Jimenez‐Diaz et al., [2009]; Jimenez‐Diaz et al., [2009]), as this model enables testing of P. falciparum strains with high infectious burden. Briefly, groups of three mice engrafted with human erythrocytes were infected with 20 × 10^6 of P. falciparum 3D7^0087/N9‐infected erythrocytes/mouse by intravenous route. The mice were randomly assigned to their corresponding experimental groups. The treatment of oral doses QD for 4 days started at day 3 after infection. Parasitaemia was measured at days 3, 5, and 7 post‐infection. The therapeutic efficacy was expressed as the dose (mg·kg^−1) that reduced parasitaemia in peripheral blood of mice at day 7 after infection by 90% (ED90) with respect to vehicle‐treated mice. Chloroquine was included as quality control for each in vivo assay. Efficacy is expressed as the daily dose (ED90), or equivalent exposure (AUCED90), administered to mice necessary to reduce parasitaemia at day 7 by 90% with respect to vehicle‐treated mice. The ED90 is estimated by fitting a four‐decade logistic equation for the log10 [parasitaemia at day 7] versus the log10 [dose] using GraphPad Prism 5.01 (GraphPad Software Inc., San Diego, CA).

S. aureus ATCC13709 = experiment: Antibacterial screen, broth microdilution; type: cell-based; details: Staphylococcus aureus
Experimental: (§1) Antibacterial activity of compounds was determined by a standard broth microdilution method (Clinical Laboratory Standard Institute CLSI, [2009]), except that for Streptococcus strains lysed blood was substituted with 5% horse serum in the testing medium. […] The activities are expressed as minimum inhibitory concentrations (MICs) in units of μg·ml^−1. […] The organisms tested represented macrolide sensitive Gram‐positive pathogens that are mainly targeted by macrolide antibiotics. Tested streptococci were clinical isolates Streptococcus pneumoniae SP030 and Streptococcus pyogenes 3565 from internal strain collection, and other strains were obtained from ATCC bioresource centre, Staphylococcus aureus ATCC13709, Haemophilus influenzae ATCC49247, and Moraxella catarrhalis ATCC23246. Double dilutions of tested compounds were prepared using TECAN Genesis 150. Bacteria were grown on appropriate agar plates (Becton Dickinson, USA)—Columbia agar with 5% sheep blood for streptococci and M. catarrhalis, Mueller‐Hinton chocolate agar for H. influenzae , and Mueller‐Hinton agar for staphylococci.

S. pneumoniae SP030 = experiment: Antibacterial screen, broth microdilution; type: cell-based; details: Streptococcus pneumoniae
Experimental: as §1

S. pyogenes 3565 = experiment: Antibacterial screen, broth microdilution; type: cell-based; details: Streptococcus pyogenes
Experimental: as §1

H. influenzae ATCC49247 = experiment: Antibacterial screen, broth microdilution; type: cell-based; details: Haemophilus influenzae
Experimental: as §1

HepG2 cells = details: cited from earlier work
[2] = Pharmacokinetic studies in rats; type: in vivo, Sprague–Dawley rats; details: Rat; for half-life / clearance / Vd / bioavailability: male, Sprague-Dawley, whole blood; for half-life: intravenous; for clearance / Vd: iv; for clearance: blood; for Vd: read-out: Vss; for bioavailability: po
Experimental: For the in vivo pharmacokinetic study, compound 1 was dosed i.v. at 5 mg·kg^−1 (5 ml·kg^−1 dosing volume) and p.o. at a dose of 25 mg·kg^−1 (10 ml·kg^−1) to male Sprague–Dawley rats (Charles River, France), weighing ~350 g. Compounds 2 and 3 were dosed i.v. at 2 mg·kg^−1 (5 ml·kg^−1 dosing volume) and p.o. at a dose of 10 mg·kg^−1 (10 ml·kg^−1). Rats were fasted for 6–12 h (overnight fasting) prior oral administration. For serial blood sampling, rats (n = 3) dosed with an i.v. bolus of compound had blood collected at the following time points after dosing: 5, 10, 20 40, 60, 120, 240, 480, 1,440, and 1,800 min. Rats (n = 3) dosed orally had blood collected at the following time points after dosing: 15, 30, 60, 120, 240, 360, 480, 1,440, and 1,800 min.
Dosing solutions were prepared in 100% saline both for i.v. and p.o. After both routes of administration, blood samples were collected from the tail vein up to 30 h, haemolysed, and frozen until analysis. […] Subsequently, samples were assayed as described for mouse PK.

[3] = test system: panel of five bacterial strains; experiment: Antibacterial screen, summary over panel of five bacterial strains; type: cell-based
Experimental: Antibacterial activity of compounds was determined by a standard broth microdilution method (Clinical Laboratory Standard Institute CLSI, [2009]), except that for Streptococcus strains lysed blood was substituted with 5% horse serum in the testing medium. Azithromycin and chloroquine were used as controls. The activities are expressed as minimum inhibitory concentrations (MICs) in units of μg·ml^−1. The compounds have been tested in at least two and up to five independent experiments generating same or similar results (a range of one to two dilutions between tests was considered acceptable which is in accordance to CLSI acceptable quality control ranges). The organisms tested represented macrolide sensitive Gram‐positive pathogens that are mainly targeted by macrolide antibiotics. Tested streptococci were clinical isolates Streptococcus pneumoniae SP030 and Streptococcus pyogenes 3565 from internal strain collection, and other strains were obtained from ATCC bioresource centre, Staphylococcus aureus ATCC13709, Haemophilus influenzae ATCC49247, and Moraxella catarrhalis ATCC23246. Double dilutions of tested compounds were prepared using TECAN Genesis 150. Bacteria were grown on appropriate agar plates (Becton Dickinson, USA)—Columbia agar with 5% sheep blood for streptococci and M. catarrhalis, Mueller‐Hinton chocolate agar for H. influenzae , and Mueller‐Hinton agar for staphylococci.

CC[C@H]1OC(=O)[C@H](C)[C@@H](O[C@H]2C[C@@](C)(OC)[C@@H](O)[C@H](C)O2)[C@H](C)[C@@H](O[C@@H]2O[C@H](C)C[C@H](N(C)C)[C@H]2O)[C@](C)(O)C[C@@H](C)CN(C)[C@H](C)[C@@H](O)[C@]1(C)O [Azithromycin, reference compound]
IC50 (haem polymerization): > 50 µM | ED90 [1]: > 200 mg/kg | MIC (S. aureus ATCC13709): 1 µg/mL (≈ 1.34 µM) | MIC (S. pneumoniae SP030): ≤ 0.125 µg/mL | MIC (S. pyogenes 3565): ≤ 0.125 µg/mL | MIC (H. influenzae ATCC49247): 2 µg/mL (≈ 2.67 µM) | Tox50 HepG2 (HepG2 cells): 203 ^b μM

CC[C@H]1OC(=O)[C@H](C)[C@@H](O[C@H]2C[C@@](C)(OC)[C@@H](O)[C@H](C)O2)[C@H](C)[C@@H](O[C@@H]2O[C@H](C)C[C@H](N(C)C)[C@H]2O)[C@](C)(O)C[C@@H](C)CN(CCCNc2ccnc3cc(Cl)ccc23)[C@H](C)[C@@H](O)[C@]1(C)O [Compound 1]
IC50 (haem polymerization): 2.5 to 4 µM | DNAUCPO ([2]; p.o. 25 mg·kg^−1, mean (SD)): 169 (21) ng*h·ml^−1·mg^−1·kg^−1 | half-life ([2]; i.v. 5 mg·kg^−1 / p.o. 25 mg·kg^−1, mean (SD)): 23.3 h | clearance ([2]; i.v. 5 mg·kg^−1, mean (SD)): 2.4 mL/min/kg | Vd ([2]; i.v. 5 mg·kg^−1, mean (SD)): 3.8 L/kg | bioavailability ([2]; i.v. 5 mg·kg^−1, p.o. 25 mg·kg^−1, mean (SD)): 2.3% | antibacterial activity (in words) [3]: inhibited the growth of whole cell bacteria | day of follow‐up up to which parasitaemia remained undetectable / parasite growth suppressed ([1]; humanized mice, oral 4‐day treatment): ≥ 24 days | MIC (S. aureus ATCC13709): 1 µg/mL (≈ 1.05 µM) | MIC (S. pneumoniae SP030): ≤ 0.125 µg/mL | MIC (S. pyogenes 3565): ≤ 0.125 µg/mL | MIC (H. influenzae ATCC49247): 16 µg/mL (≈ 16.8 µM) | Tox50 HepG2 (HepG2 cells; ref Peric et al. ([2012])): 30 ^c μM

CC[C@H]1OC(=O)[C@H](C)[C@@H](O)[C@H](C)[C@@H](O[C@@H]2O[C@H](C)C[C@H](N(C)C)[C@H]2OCCCNc2ccnc3ccccc23)[C@](C)(O)C[C@@H](C)CN[C@H](C)[C@@H](O)[C@]1(C)O [Compound 3]
IC50 (haem polymerization): 5 to 6.2 µM | DNAUCPO ([2]; oral gavage 10 mg·kg^−1, mean (SD)): 36.2 (29) ng*h·ml^−1·mg^−1·kg^−1 | half-life ([2]; i.v. 2 mg·kg^−1 / p.o. 10 mg·kg^−1, mean (SD)): 18.8 h | clearance ([2]; i.v. 2 mg·kg^−1, mean (SD)): 4 mL/min/kg | Vd ([2]; i.v. 2 mg·kg^−1, mean (SD)): 6.3 L/kg | bioavailability ([2]; i.v. 2 mg·kg^−1, p.o. 10 mg·kg^−1, mean (SD)): 1% | antibacterial activity (in words) [3]: no antibacterial activity | ED90 [1]: 23.9 mg/kg | MIC (S. aureus ATCC13709): > 64 µg/mL | MIC (S. pneumoniae SP030): > 64 µg/mL | MIC (S. pyogenes 3565): > 64 µg/mL | MIC (H. influenzae ATCC49247): > 64 µg/mL | Tox50 HepG2 (HepG2 cells; ref Pesic et al. ([2012])): 83 ^b μM
